Assay results taken from patent US20240368092A1, “2,4-Dihydro-3H-1,2,4-Triazol-3-One P2X7 Antagonists” (Breye Therapeutics ApS, priority 2021, published 2024).

Legend:
Format in all cases: cell-based
human P2X7 channel = molecular target: T1, human P2X7 channel (Homo sapiens, UniProt Q99572); experiment: human P2X7 channel assay by automated patch-clamp (QPatch 16X); details: HEK-293 cells expressing P2X7; current evoked by 100 microM BzATP; whole-cell, held at -80 mV; read-out: human Q-Patch (activity range)
T1 construct: expressed in transfected cells; host or cells: HEK-293
T1 sequence (Q99572 1-595): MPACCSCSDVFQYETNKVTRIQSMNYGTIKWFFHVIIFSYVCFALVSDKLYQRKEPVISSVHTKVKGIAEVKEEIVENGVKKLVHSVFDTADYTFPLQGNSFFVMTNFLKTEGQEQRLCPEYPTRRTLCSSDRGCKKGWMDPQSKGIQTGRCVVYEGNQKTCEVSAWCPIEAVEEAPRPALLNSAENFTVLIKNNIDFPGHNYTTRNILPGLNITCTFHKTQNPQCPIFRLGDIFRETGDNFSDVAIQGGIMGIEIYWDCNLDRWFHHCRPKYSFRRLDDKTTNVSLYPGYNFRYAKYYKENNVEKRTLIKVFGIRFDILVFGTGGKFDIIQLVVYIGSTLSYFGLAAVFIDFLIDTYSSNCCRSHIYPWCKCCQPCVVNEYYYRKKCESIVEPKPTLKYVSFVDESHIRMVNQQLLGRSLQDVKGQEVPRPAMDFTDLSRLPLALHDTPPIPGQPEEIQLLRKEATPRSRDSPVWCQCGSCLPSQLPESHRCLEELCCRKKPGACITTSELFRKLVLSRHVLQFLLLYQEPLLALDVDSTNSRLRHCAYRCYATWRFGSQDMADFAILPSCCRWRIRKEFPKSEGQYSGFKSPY
Method in brief: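 Whole-cell patch clamp on HEK-293 cells expressing P2X7, room temperature, held at −80 mV, CsF internal and NaCl external (pH 7.4). Currents evoked by 100 microM BzATP, four controls then with compound at 1, 10, 100 and 1000 nM; peak inward current normalized, IC50 from dose-response fit, reported as potency bins.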

humanP2X7 = molecular target: T2, humanP2X7 (Homo sapiens, UniProt Q99572); experiment: P2X7 channel calcium-influx assay (Fluo-8, FLIPR TETRA), human P2X7; details: HEK-293 cells stably transfected with P2X7; Bz-ATP at EC80; low divalent cation buffer; read-out: humanP2X7 (activity range)
T2 construct: expressed in transfected cells; host or cells: HEK-293
T2 sequence (Q99572 1-595): T1 sequence (Q99572 1-595)
Method in brief: (§1)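 HEK-293 cells stably expressing the respective species' P2X7, Fluo-8 NW loaded 1 h at RT in low divalent buffer (0.3 mM Ca2+, 0 mM Mg2+). Compound preincubated 5 min, then Bz-ATP at EC80; FLIPR calcium influx over 3 min. IC50 from % inhibition relative to reference antagonist A438079, reported as potency bins.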

mouseP2X7 = molecular target: T3, mouseP2X7 (Mus musculus, UniProt Q9Z1M0); experiment: P2X7 channel calcium-influx assay (Fluo-8, FLIPR TETRA), mouse P2X7; details: HEK-293 cells stably transfected with P2X7; Bz-ATP at EC80; low divalent cation buffer; read-out: mouseP2X7 (activity range)
T3 construct: expressed in transfected cells; host or cells: HEK-293
T3 sequence (Q9Z1M0 1-595): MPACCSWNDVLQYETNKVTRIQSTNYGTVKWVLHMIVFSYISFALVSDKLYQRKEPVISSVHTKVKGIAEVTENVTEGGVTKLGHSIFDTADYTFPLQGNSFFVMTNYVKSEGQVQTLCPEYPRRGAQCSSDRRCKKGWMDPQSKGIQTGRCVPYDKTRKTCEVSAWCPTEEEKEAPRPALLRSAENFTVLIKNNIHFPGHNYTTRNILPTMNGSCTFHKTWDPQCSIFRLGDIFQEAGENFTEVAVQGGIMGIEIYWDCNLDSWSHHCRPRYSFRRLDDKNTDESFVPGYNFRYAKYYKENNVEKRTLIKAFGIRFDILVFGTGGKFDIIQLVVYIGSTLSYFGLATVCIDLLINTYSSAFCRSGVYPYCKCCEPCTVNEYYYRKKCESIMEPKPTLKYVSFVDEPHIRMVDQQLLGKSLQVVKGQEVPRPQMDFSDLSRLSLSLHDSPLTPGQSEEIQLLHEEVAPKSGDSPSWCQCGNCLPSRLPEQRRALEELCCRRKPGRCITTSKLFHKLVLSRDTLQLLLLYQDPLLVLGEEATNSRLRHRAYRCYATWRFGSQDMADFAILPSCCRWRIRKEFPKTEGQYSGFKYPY
Method in brief: as §1

ratP2X7 = molecular target: T4, ratP2X7 (Rattus norvegicus, UniProt Q64663); experiment: P2X7 channel calcium-influx assay (Fluo-8, FLIPR TETRA), rat P2X7; details: HEK-293 cells stably transfected with P2X7; Bz-ATP at EC80; low divalent cation buffer; read-out: ratP2X7 (activity range)
T4 construct: expressed in transfected cells; host or cells: HEK-293
T4 sequence (Q64663 1-595): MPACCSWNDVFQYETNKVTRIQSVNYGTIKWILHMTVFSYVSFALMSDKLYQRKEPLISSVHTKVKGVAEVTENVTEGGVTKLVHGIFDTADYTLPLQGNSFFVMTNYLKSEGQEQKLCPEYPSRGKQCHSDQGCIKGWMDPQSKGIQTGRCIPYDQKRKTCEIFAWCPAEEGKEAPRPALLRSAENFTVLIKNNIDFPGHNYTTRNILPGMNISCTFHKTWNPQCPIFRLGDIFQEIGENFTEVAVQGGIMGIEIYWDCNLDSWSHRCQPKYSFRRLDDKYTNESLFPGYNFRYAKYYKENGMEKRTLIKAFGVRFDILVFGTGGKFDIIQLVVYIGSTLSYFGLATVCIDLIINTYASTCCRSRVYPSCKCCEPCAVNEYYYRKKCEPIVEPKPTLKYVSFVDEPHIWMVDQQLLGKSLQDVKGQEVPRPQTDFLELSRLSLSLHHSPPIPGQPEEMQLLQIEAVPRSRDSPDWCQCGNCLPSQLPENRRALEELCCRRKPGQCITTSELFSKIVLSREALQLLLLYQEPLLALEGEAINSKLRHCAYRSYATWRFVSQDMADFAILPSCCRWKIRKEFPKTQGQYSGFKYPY
Method in brief: as §1

| IC50 (human P2X7 channel) | IC50 (humanP2X7) | IC50 (mouseP2X7) | IC50 (ratP2X7) | SMILES |
| --- | --- | --- | --- | --- |
| 0.01 to 0.1 µM | < 0.2 µM | < 0.2 µM | < 0.2 µM | O=c1n(CC(F)(F)F)nc(Cc2c(F)cccc2Cl)n1CC1CCCCCC1 [Example 67, 5-[(2-chloro-6-fluorophenyl)methyl]-4-(cycloheptylmethyl)-2-(2,2,2-trifluoroethyl)-2,4-dihydro-3H-1,2,4-triazol-3-one] |
| 1 to 10 µM | 1 to 10 µM | 1 to 10 µM | 0.2 to 1 µM | CN1CCCCC1Cn1c(Cc2c(F)cccc2Cl)nn(CC(F)(F)F)c1=O (stereo not shown) [Example 68, 5-[(2-chloro-6-fluorophenyl)methyl]-4-[(1-methylpiperidin-2-yl)methyl]-2-(2,2,2-trifluoroethyl)-2,4-dihydro-3H-1,2,4-triazol-3-one] |
| 0.01 to 0.1 µM | < 0.2 µM | 0.2 to 1 µM | < 0.2 µM | O=c1n(CC2CC2)nc(Cc2c(F)cccc2Cl)n1CC1CCC(C(F)(F)F)CC1 (stereo not shown) [Example 69, 5-(2-chloro-6-fluorobenzyl)-2-(cyclopropylmethyl)-4-((4-(trifluoromethyl)cyclohexyl)methyl)-2,4-dihydro-3H-1,2,4-triazol-3-one] |
| 0.1 to 1 µM | 0.2 to 1 µM | 1 to 10 µM | < 0.2 µM | O=c1n(CC(F)(F)F)nc(CC2CCC(F)(F)CC2)n1Cc1c(F)cccc1Cl [Example 70, 4-[(2-chloro-6-fluorophenyl)methyl]-5-[(4,4-difluorocyclohexyl)methyl]-2-(2,2,2-trifluoroethyl)-2,4-dihydro-3H-1,2,4-triazol-3-one] |
